The record followed here is US20200140489A1 (priority 2013, published 2020).

Where two headings read alike, the source gives them in different places. Positions of bridges follow the written chain, without caps; N, C: chain ends. Non-standard residues stand in square brackets, D forms with d. Residues, ends and D or L forms follow the SMILES beside them. NMeF = CN[C@@H](Cc1ccccc1)C(=O)O; NMeN = CN[C@@H](CC(N)=O)C(=O)O; NMeC = CN[C@@H](CS)C(=O)O

For orientation: EC50 means the concentration needed to bring the measured effect to its halfway point.

The target in assay [1] is T1, AgrC-IV (Staphylococcus aureus, UniProt Q309Z2). The experiment in a line: Hemolysis assay, wild-type group-IV strain RN4850, rabbit red blood cells. The settings on record: read-out: AgrC-IV IC50, hemolysis assay, 200 fM − 10 μM.
Assay [2] concerns the target T2, AgrC-I (Staphylococcus aureus, UniProt O07911). It is filed as cell-based, S. aureus. The settings on record: read-out: AgrC-I IC50.
Assay [3] deals with T3, AgrC-II (Staphylococcus aureus, UniProt O33587). The experiment in a line: Hemolysis assay, wild-type group-II strain RN6923, rabbit red blood cells. The note with it: read-out: AgrC-II IC50, hemolysis assay, 200 fM − 10 μM.
The target in assay [4] is T1, AgrC-IV. Type of assay: cell-based, S. aureus. The note with it: read-out: AgrC-IV IC50, fluorescence reporter strain.
For assay [5], the target named is T4, AgrC-III (Staphylococcus aureus, UniProt O33590). It is filed as cell-based, S. aureus. The note with it: for IC50: read-out: AgrC-III IC50, fluorescence reporter strain.
Assay [6] deals with T4, AgrC-III. Put plainly: Hemolysis assay, wild-type group-III strain MN8, rabbit red blood cells.
Assay [7] has as its target T2, AgrC-I. Put plainly: Hemolysis assay, wild-type group-I strain RN6390B, rabbit red blood cells. The note with it: for IC50: read-out: AgrC-I IC50, hemolysis assay, 200 fM − 10 μM.
In assay [8] the target is T3, AgrC-II. It is filed as cell-based, S. aureus. The note with it: for IC50: read-out: AgrC-II IC50, fluorescence reporter strain.
In assay [9] the target is T4, AgrC-III. The settings on record: read-out: AgrC-III EC50; β-lactamase reporter strain; 2.5 pM − 10 μM.
Where [10] appears, read: selected second-generation analogues.
[11] abbreviates: second-generation analogues, fluorescence reporter strain, 200 fM − 10 μM.
Setting [12] is: second-generation analogues, 200 fM − 10 μM.
The mark [13] stands for this setting: read-out: AgrC-III IC50, selected second-generation analogues, 200 fM − 10 μM.
Where [14] appears, read: read-out: AgrC-III IC50, 200 fM − 10 μM.
Where [15] appears, read: fluorescence reporter strain, AIPs tested over 200 fM − 10 μM or (b1) 2.5 pM − 10 μM, triplicate.
The mark [16] stands for this setting: AIPs tested over 200 fM − 10 μM or (b1) 2.5 pM − 10 μM, triplicate.

T3 sequence (O33587 1-437): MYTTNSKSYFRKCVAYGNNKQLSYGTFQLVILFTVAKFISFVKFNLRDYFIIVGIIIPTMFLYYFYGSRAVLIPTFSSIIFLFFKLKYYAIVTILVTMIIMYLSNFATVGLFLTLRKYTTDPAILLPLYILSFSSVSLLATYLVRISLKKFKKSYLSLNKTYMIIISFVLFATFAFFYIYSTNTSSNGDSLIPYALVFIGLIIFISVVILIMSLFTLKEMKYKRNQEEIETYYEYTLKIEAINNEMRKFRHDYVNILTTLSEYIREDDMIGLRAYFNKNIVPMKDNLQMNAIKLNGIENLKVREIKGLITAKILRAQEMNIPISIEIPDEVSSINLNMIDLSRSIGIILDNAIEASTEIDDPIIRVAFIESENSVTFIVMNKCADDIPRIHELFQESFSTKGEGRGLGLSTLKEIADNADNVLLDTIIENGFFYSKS
T1 sequence (Q309Z2 1-430): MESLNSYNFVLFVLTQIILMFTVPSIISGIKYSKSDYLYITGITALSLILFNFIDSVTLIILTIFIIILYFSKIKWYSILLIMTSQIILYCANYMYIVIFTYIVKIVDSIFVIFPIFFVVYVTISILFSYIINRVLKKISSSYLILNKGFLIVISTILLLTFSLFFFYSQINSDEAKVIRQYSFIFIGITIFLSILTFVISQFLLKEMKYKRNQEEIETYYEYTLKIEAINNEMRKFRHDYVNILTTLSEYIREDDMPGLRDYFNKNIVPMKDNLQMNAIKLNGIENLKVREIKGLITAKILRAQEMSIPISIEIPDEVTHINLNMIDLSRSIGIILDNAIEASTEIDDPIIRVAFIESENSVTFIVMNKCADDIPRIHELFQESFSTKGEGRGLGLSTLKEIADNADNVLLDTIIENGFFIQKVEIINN
T4 sequence (O33590 1-425): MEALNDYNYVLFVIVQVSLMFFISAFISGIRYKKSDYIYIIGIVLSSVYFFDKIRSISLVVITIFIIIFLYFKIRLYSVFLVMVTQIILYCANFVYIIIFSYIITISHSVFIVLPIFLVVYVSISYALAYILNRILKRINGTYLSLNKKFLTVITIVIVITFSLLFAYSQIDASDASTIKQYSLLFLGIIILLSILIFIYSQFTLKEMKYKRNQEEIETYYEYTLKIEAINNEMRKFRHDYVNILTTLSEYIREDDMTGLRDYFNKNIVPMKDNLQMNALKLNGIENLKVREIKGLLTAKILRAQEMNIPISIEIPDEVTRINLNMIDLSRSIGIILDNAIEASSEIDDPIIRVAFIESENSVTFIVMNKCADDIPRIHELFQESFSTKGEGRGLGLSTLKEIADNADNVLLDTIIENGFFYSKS
T2 sequence (O07911 1-430): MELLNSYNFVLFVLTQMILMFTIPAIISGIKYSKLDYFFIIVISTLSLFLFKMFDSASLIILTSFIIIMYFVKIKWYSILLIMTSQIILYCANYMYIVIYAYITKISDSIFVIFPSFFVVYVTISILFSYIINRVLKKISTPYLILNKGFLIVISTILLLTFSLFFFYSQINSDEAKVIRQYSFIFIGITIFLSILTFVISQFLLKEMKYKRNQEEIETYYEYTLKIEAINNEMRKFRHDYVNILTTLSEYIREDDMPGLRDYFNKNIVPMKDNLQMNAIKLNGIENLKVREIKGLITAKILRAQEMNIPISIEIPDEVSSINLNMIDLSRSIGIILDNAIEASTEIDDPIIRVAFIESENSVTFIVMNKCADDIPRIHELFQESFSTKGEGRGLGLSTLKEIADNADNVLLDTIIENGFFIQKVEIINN

For `CC(C)C[C@@H]1NC(=O)[C@H](Cc2ccccc2)NC(=O)[C@H](C)NC(=O)[C@@H](NC(=O)[C@H](CC(N)=O)NC(=O)[C@H](C)N)CSC(=O)[C@H](CC(C)C)NC1=O` [AIP-III I1A/D4A, A-N-(C-A-F-L-L)] (H-ANCAFLL; thioester 3-C), the IC50 in assay [1] (setting [10]) was 0.284 nM; in assay [2] (setting [11]), 0.328 nM; in [3] (setting [10]), 0.793 nM; in [4] (setting [12]) it was 0.101 nM; in assay [5] (setting [12]) it was 0.28 nM; in assay [6] (setting [13]), 0.551 nM. Moreover, the IC50 was 0.0103 nM in [7] (setting [10]) and 2.35 nM in [8] (setting [12]). The “fold lower concentrations inhibiting hemolysis than AIP-III D4A” value in [7] (group-I) is listed as “eight”. The “fold change against AgrC-II relative to AIP-III D4A” value in [8] (gfp reporter) is on record as under 5 fold.
On to `CC[C@H](C)[C@@H]1NC(=O)[C@H](Cc2ccccc2)NC(=O)[C@H](C)NC(=O)[C@@H](NC(C)=O)CSC(=O)[C@H](CCSC)NC1=O` [tAIP-I D2A, Ac-(C-A-F-I-M), reference compound] (Ac-CAFIM; thioester 1-C), for which the IC50 stood at 0.361 nM in assay [1], 2.5 nM in assay [3], 0.853 nM in assay [6] (setting [14]) and 1.45 nM in [7].
For `CC[C@H](C)[C@H](N)C(=O)N[C@@H](CC(N)=O)C(=O)N[C@H]1CSC(=O)[C@H](CC(C)C)NC(=O)[C@H](CC(C)C)NC(=O)[C@H](Cc2ccccc2)N(C)C(=O)[C@H](CC(=O)O)NC1=O` [AIP-III N-Me-F5, I-N-(C-D-NMeF-L-L)] (H-INCD[NMeF]LL; thioester 3-C), the IC50 was determined as 4.49 nM in assay [2] (setting [15]), 6.59 nM in assay [4] (setting [16]) and 1.95 nM in [8] (setting [16]). Besides, the EC50 in assay [9] was 49.6 nM.
With `CC[C@H](C)[C@H](N)C(=O)N[C@@H](C)C(=O)N[C@H]1CSC(=O)[C@H](CC(C)C)NC(=O)[C@H](CC(C)C)NC(=O)[C@H](Cc2ccccc2)NC(=O)[C@H](C)NC1=O` [AIP-III N2A/D4A, I-A-(C-A-F-L-L)] (H-IACAFLL; thioester 3-C), the IC50 in [1] (setting [10]) is 0.122 nM; in assay [2] (setting [11]) it was 0.331 nM; in assay [3] (setting [10]), 0.0661 nM; in assay [4] (setting [12]), 0.0221 nM; in assay [5] (setting [12]) it was 0.0657 nM; in assay [6] (setting [13]), 0.216 nM. Further, the IC50 in assay [7] (setting [10]) worked out at 0.0362 nM; in assay [8] (setting [12]), 0.204 nM.
As for `CC[C@H](C)[C@H](N)C(=O)N[C@@H](C)C(=O)N[C@H]1CSC(=O)[C@H](CC(C)C)NC(=O)[C@H](CC(C)C)NC(=O)[C@H](Cc2ccccc2)NC(=O)[C@H](CC(=O)O)NC1=O` [AIP-III N2A, I-A-(C-D-F-L-L)] (H-IACDFLL; thioester 3-C), the IC50 in assay [1] amounted to 2.64 nM; in assay [2] (setting [15]), 3.6 nM; in [3], 0.137 nM; in assay [4] (setting [16]), 3.53 nM; in assay [7], 1.02 nM; in [8] (setting [16]), 0.732 nM. Besides, the “AgrC-III activity” value in [5] (gfp/fluorescence assay) is given as “weak agonist”.
As for `CC(=O)N[C@H]1CSC(=O)[C@H](CC(C)C)NC(=O)[C@H](CC(C)C)NC(=O)[C@H](Cc2ccc(O)cc2)NC(=O)[C@H](C)NC1=O` [tAIP-III D2A/F3Y, Ac-(C-A-Y-L-L)] (Ac-CAYLL; thioester 1-C), the IC50 amounted to 0.134 nM in assay [1] (setting [10]); 0.279 nM in assay [2]; 0.204 nM in assay [3] (setting [10]); 0.0306 nM in assay [4] (setting [12]); 0.387 nM in assay [5] (setting [12]); 0.265 nM in assay [6] (setting [13]). Besides, the IC50 is 0.279 nM in [7] (setting [10]) and 1.15 nM in [8] (setting [12]).
With `CC(C)C[C@@H]1NC(=O)[C@H](Cc2ccccc2)NC(=O)[C@H](CC(=O)O)NC(=O)[C@@H](NC(=O)[C@H](CC(N)=O)NC(=O)[C@H](C)N)CSC(=O)[C@H](CC(C)C)NC1=O` [AIP-III I1A, A-N-(C-D-F-L-L)] (H-ANCDFLL; thioester 3-C), the IC50 in assay [1] was 12.5 nM; in [2] (setting [15]), 17.9 nM; in assay [3] it was 1.29 nM; in assay [4] (setting [16]), 7.85 nM; in assay [5] (setting [16]), 194 nM; in assay [7], 4.61 nM. The IC50 in assay [8] (setting [16]) was determined as 4.26 nM.
As for `CC(C)C[C@@H]1NC(=O)[C@H](Cc2ccccc2)NC(=O)[C@H](C)NC(=O)[C@@H](NC(=O)[C@H](C)NC(=O)[C@H](C)N)CSC(=O)[C@H](CC(C)C)NC1=O` [AIP-III I1A/N2A/D4A, A-A-(C-A-F-L-L)] (H-AACAFLL; thioester 3-C), the IC50 in assay [1] (setting [10]) is 0.14 nM; in [2] (setting [11]) it was 0.304 nM; in assay [3] (setting [10]), 0.0606 nM; in assay [4] (setting [12]) it was 0.0161 nM; in assay [5] (setting [12]), 0.0734 nM; in [6] (setting [13]), 0.243 nM. The values for the IC50 in assay [7] (setting [10]) and in [8] (setting [12]) were 0.0411 nM and 0.604 nM, respectively.
Regarding `CC(=O)N[C@H]1CSC(=O)[C@H](CC(C)C)NC(=O)[C@H](CC(C)C)NC(=O)[C@H](Cc2c[nH]c3ccccc23)NC(=O)[C@H](C)NC1=O` [Ac-(C-A-W-L-L)] (Ac-CAWLL; thioester 1-C), the IC50 in assay [1] (setting [10]) was 0.194 nM; in assay [2] (setting [11]), 0.909 nM; in assay [3] (setting [10]), 0.126 nM; in assay [4] (setting [12]) it was 0.0363 nM; in assay [5] (setting [12]) it was 0.509 nM; in [6] (setting [13]) it was 1.08 nM. In addition, the IC50 was 0.468 nM in assay [7] (setting [10]) and 1.9 nM in assay [8] (setting [12]).
`CC(C)C[C@@H]1NC(=O)[C@H](CO)NC(=O)[C@H](CO)NC(=O)[C@@H](NC(=O)[C@H](C)NC(=O)[C@H](CC(N)=O)NC(=O)[C@@H](NC(=O)CN)C(C)C)CSC(=O)[C@H](Cc2ccccc2)NC1=O` [AIP-II, G-V-N-A-(C-S-S-L-F), reference compound] (H-GVNACSSLF; thioester 5-C): the IC50 in assay [1] is 1.19 nM; in assay [2], 1.62 nM; in assay [4] (setting [16]) it was 0.396 nM; in assay [5] (setting [16]) it was 0.532 nM; in assay [6] (setting [14]), 3.59 nM; in [7], 0.89 nM.
Consider `CC[C@H](C)[C@H](N)C(=O)N(C)[C@@H](CC(N)=O)C(=O)N[C@H]1CSC(=O)[C@H](CC(C)C)NC(=O)[C@H](CC(C)C)NC(=O)[C@H](Cc2ccccc2)NC(=O)[C@H](CC(=O)O)NC1=O` [AIP-III N-Me-N2, I-NMeN-(C-D-F-L-L)] (H-I[NMeN]CDFLL; thioester 3-C), for which the IC50 in assay [2] (setting [15]) was found to be 8.04 nM; in assay [4] (setting [16]), 9.54 nM; in assay [8] (setting [16]) it was 3.19 nM. Moreover, the EC50 in [9] amounted to 19 nM.
Consider `CC[C@H](C)[C@@H]1NC(=O)[C@H](Cc2ccccc2)NC(=O)[C@H](CC(=O)O)NC(=O)[C@@H](NC(=O)[C@@H](NC(=O)[C@H](CO)NC(=O)[C@@H](N)Cc2ccc(O)cc2)[C@@H](C)O)CSC(=O)[C@H](CCSC)NC1=O` [AIP-I, Y-S-T-(C-D-F-I-M), reference compound] (H-YSTCDFIM; thioester 4-C), for which the IC50 in [1] was found to be 189 nM; in assay [3], 3.34 nM; in assay [5] (setting [16]) it was 0.522 nM; in assay [6] (setting [14]), 6.12 nM; in [8] (setting [16]), 8 nM.
Regarding `CC[C@H](C)[C@H](N)C(=O)N[C@@H](CC(N)=O)C(=O)N(C)[C@H]1CSC(=O)[C@H](CC(C)C)NC(=O)[C@H](CC(C)C)NC(=O)[C@H](Cc2ccccc2)NC(=O)[C@H](CC(=O)O)NC1=O` [AIP-III N-Me-C3, I-N-(NMeC-D-F-L-L)] (H-IN[NMeC]DFLL; thioester 3-C), the IC50 in assay [2] (setting [15]) was found to be 137 nM; in [4] (setting [16]), 106 nM; in assay [8] (setting [16]) it was 134 nM. Besides, the concentration giving a half-maximal response (EC50) in assay [9] was over 1000 nM.
Consider `CC[C@H](C)[C@@H]1NC(=O)[C@H](Cc2ccccc2)NC(=O)[C@H](Cc2ccc(O)cc2)NC(=O)[C@@H](NC(=O)[C@@H](NC(=O)[C@H](CO)NC(=O)[C@@H](N)Cc2ccc(O)cc2)[C@@H](C)O)CSC(=O)[C@H](CCSC)NC1=O` [AIP-IV, Y-S-T-(C-Y-F-I-M), reference compound] (H-YSTCYFIM; thioester 4-C), for which the IC50 was found to be 0.0897 nM in assay [3], 0.46 nM in [5] (setting [16]), 1.49 nM in assay [6] (setting [14]) and 0.373 nM in [8] (setting [16]).
